Data taken from patent US20060069124A1 (priority 2004, published 2006).

Columns and labels:
[1] = test system: adrenergic alpha-1 receptors; conditions: cited from earlier work
human eosinophils [2] = experiment: Transwell chamber chemotaxis assay: inhibition of 5-HT-induced eosinophil chemotaxis; type: cell-based; conditions: 5-HT 100 nM
Experimental: (§1) Eosinophil Isolation: Eosinophils were purified from the peripheral blood of allergic donors (Boehme, et al. J. Immunol. 163:1611 (1999)). […] Culture medium alone or medium containing 5-HT (100 nM) or eotaxin (50 nM) was added to the lower chamber. In certain experiments 5-HT was added to only upper or both upper and lower chambers and incubated at 37° C. for 4 h after which the chambers were removed and the number of migrated cells was quantitated and expressed as a % of total cells added to the well. […] Neuropsychopharmacology 15:116 (1996)), on 5-HT mediated eosinophil chemotaxis was investigated in vitro (FIG. 3).

[3] = test system: muscarinic cholinergic receptors; conditions: cited from earlier work
OVA-challenged mice [4] = experiment: AHR to methacholine in murine model of allergic airway inflammation; type: in vivo, BALB/c mice; conditions: 0.5 mg/kg body weight i.p., 15 min before OVA aerosol challenge; versus OVA-challenged mice without antagonist; FIG. 6
Experimental: Murine model of allergic airway inflammation: Pulmonary eosinophilia was induced in female BALB/c mice. In brief, mice were sensitized by two i.p. injections with 50 μg ovalbumin (OVA) in 200 μl alum (Pierce). Non-sensitized mice received 200 μl of alum alone. […] Fifteen minutes after injection of the inhibitor, mice were exposed to three inhalations (30 min each) of aerosolized OVA (10 mg/ml in 0.9% sterile saline) at 1 h intervals. Non-sensitized mice received an i.p. injection of vehicle and aerosol challenge of saline only. One hour after the last aero-allergen challenge, mice were assessed for airway hyperreactivity/responsiveness (AHR) as described below and subsequently sacrificed and processed for BAL fluid collection to determine eosinophil counts (Broide, et al. Am. J. Respir. Cell Mol. Biol. 18:218 (1998)). Determination of AHR to methacholine: AHR was assessed after completion of the final OVA inhalation challenges, immediately before the mice were sacrificed using a single chamber whole body plethysmograph obtained from Buxco (Troy, N.Y.), as previously described (Broide, et al. Am. J. Physiol. Lung Cell Mol Physiol. 282:[…] (2002)). In this system, an unrestrained, spontaneously breathing mouse is placed into the main chamber of the plethysmograph, and pressure differences between this chamber and a reference chamber are recorded. […]

dopamine D-2 receptors = dopamine D-2 receptors (Homo sapiens, UniProt P14416); conditions: cited from earlier work
5HT1 receptors = conditions: cited from earlier work
OVA-challenged mice [5] = experiment: Eosinophil counts in BAL fluid in murine model of allergic airway inflammation; type: in vivo, BALB/c mice; conditions: 0.5 mg/kg body weight i.p.; versus OVA-challenged mice without compound; FIG. 7
Experimental: Murine model of allergic airway inflammation: Pulmonary eosinophilia was induced in female BALB/c mice. In brief, mice were sensitized by two i.p. injections with 50 μg ovalbumin (OVA) in 200 μl alum (Pierce). Non-sensitized mice received 200 μl of alum alone. […] Fifteen minutes after injection of the inhibitor, mice were exposed to three inhalations (30 min each) of aerosolized OVA (10 mg/ml in 0.9% sterile saline) at 1 h intervals. Non-sensitized mice received an i.p. injection of vehicle and aerosol challenge of saline only. One hour after the last aero-allergen challenge, mice were assessed for airway hyperreactivity/responsiveness (AHR) as described below and subsequently sacrificed and processed for BAL fluid collection to determine eosinophil counts (Broide, et al. Am. J. Respir. Cell Mol. Biol. 18:218 (1998)). […] BALB/c mice were immunized intraperitoneally (i.p.) with alum alone (control), 50 μg OVA in alum and boosted 12 days later with an additional dose of OVA (50 μg). […] Fifteen minutes later, mice were challenged with either nebulized OVA (10 mg/ml) or PBS (challenge control) for 30 min. […] Three hours after the last challenge, AHR was measured in unrestrained mice using BUXCO plethysmography. […] The percentage of the total cells that were eosinophils was quantitated. […] No eosinophils were detected (n.d.) in the BAL fluid of control mice.

human eosinophils [6] = experiment: Transwell chamber chemotaxis assay: eotaxin-induced eosinophil migration; type: cell-based; conditions: MDL-100,907 20 μM; eotaxin 50 nM; FIG. 3
Experimental: as §1

neutrophils = experiment: Chemoattractant-induced chemotaxis of neutrophils; type: cell-based; conditions: C5a 10^−7 M positive control; FIG. 1
human eosinophils [7] = experiment: Chemoattractant-induced migration of eosinophils; type: cell-based; conditions: for migration of human eosinophils induced by chemoattractant: C5a 10^−7 M positive control, eotaxin 50 nM on untreated eosinophils, FIG. 1, FIG. 3
Experimental: Eosinophil Isolation: Eosinophils were purified from the peripheral blood of allergic donors (Boehme, et al. J. Immunol. 163:1611 (1999)).
Culture medium alone or medium containing 5-HT (100 nM) or eotaxin (50 nM) was added to the lower chamber. In certain experiments 5-HT was added to only upper or both upper and lower chambers and incubated at 37° C. for 4 h after which the chambers were removed and the number of migrated cells was quantitated and expressed as a % of total cells added to the well.

Sequence of dopamine D-2 receptors (P14416 whole entry): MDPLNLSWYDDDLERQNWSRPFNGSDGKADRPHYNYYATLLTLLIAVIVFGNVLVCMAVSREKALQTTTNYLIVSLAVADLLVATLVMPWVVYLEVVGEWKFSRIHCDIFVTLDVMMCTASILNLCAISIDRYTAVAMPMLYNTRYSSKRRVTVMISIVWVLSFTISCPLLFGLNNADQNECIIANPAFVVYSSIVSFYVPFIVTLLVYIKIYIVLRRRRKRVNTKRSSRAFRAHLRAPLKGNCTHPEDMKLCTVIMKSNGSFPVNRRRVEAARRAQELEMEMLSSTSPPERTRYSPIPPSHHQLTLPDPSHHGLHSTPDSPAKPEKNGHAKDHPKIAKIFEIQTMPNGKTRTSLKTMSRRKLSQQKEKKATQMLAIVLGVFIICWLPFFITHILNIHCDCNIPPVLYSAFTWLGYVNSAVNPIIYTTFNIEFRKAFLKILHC

**Q.** Which “activity at adrenergic alpha-1 receptors” value [1] does the source give for `COc1cccc([C@H](O)C2CCN(CCc3ccc(F)cc3)CC2)c1OC` [MDL-100,907, R-(+)-α-(2,3-dimethoxyphenyl)-1-[2-(4-fluorophenyl)ethyl]-4-piperidine methanol] here?
**A.** The value was “little detectable activity”.

**Q.** And the “chemotactic response to 5-HT” value (human eosinophils [2]; MDL-100,907 20 μM, versus untreated eosinophils, FIG. 3)?
**A.** The value was “significantly reduced chemotactic response”.

**Q.** And the “inhibition of eosinophil chemotaxis to 5-HT” value (human eosinophils [2]; all ranges from 0.1 μM to 100 μM, FIG. 5)?
**A.** Its value is “Robust inhibition of eosinophil chemotaxis”.

**Q.** And the “activity at muscarinic cholinergic receptors” value [3]?
**A.** Its value is “little detectable activity”.

**Q.** And the “AHR (airway hyperresponsiveness), BUXCO plethysmography” value (OVA-challenged mice [4])?
**A.** The value was “markedly reduced AHR”.

**Q.** And the “activity at dopamine D-2 receptors” value (dopamine D-2 receptors)?
**A.** Its value is “little detectable activity”.

**Q.** And the “activity at 5HT1 receptors” value (5HT1 receptors)?
**A.** The value was “little detectable activity”.

**Q.** What about the “number of eosinophils present in the BAL fluid” value (OVA-challenged mice [5]) of the same molecule?
**A.** Its value is “inhibited the number of eosinophils”.

**Q.** What about the “migratory response to eotaxin of treated eosinophils” value (human eosinophils [6]) of the same molecule?
**A.** Its value is “robust migratory response”.

**Q.** Which “chemotaxis of neutrophils induced by chemoattractant” value (neutrophils) does the source give for `NCCc1c[nH]c2ccc(O)cc12` [5-HT, Serotonin] here?
**A.** The value was “did not induce chemotaxis of neutrophils”.

**Q.** And the “concentration at which induced eosinophil migration was maximal” value (human eosinophils [7]; 5-HT alone, dose-dependent)?
**A.** Its value is 10^−6 molar (M).

**Q.** What about the “migration of human eosinophils induced by chemoattractant” value (human eosinophils [7]; 5-HT alone) of the same molecule?
**A.** Its value is “induce migration of human eosinophils in a dose-dependent manner”.

**Q.** And the “nature of induced migration (chemotactic or chemokinetic)” value (human eosinophils [7]; 5-HT in upper or both chambers, FIG. 2)?
**A.** Its value is “directed chemotactic response and not chemokinetic”.

**Q.** Which “migration of human eosinophils induced by chemoattractant” value (human eosinophils [7]; 5-HT alone) does the source give for “eotaxin: chemokine, eosinophil chemoattractant” here?
**A.** The value was “robust migratory response”.

B1: C5a: positive control chemoattractant for eosinophils and neutrophils (protein, UniProt P01031 678-751, looked up)
C5a anaphylatoxin: TLQKKIEEIAAKYKHSVVKKCCYDGACVNNDETCEQRAARISLGPRCIKAFTECCVVASQLRANISHKDMQLGR
modifications: C5a anaphylatoxin
notes: positive control chemoattractant for eosinophils and neutrophils
**Q.** Which results are given for B1?
**A.** chemotaxis of neutrophils induced by chemoattractant (neutrophils): induce migration of both eosinophils and neutrophils; migration of human eosinophils induced by chemoattractant (human eosinophils [7]; 5-HT alone): induce migration of both eosinophils and neutrophils
